Holding throughout (type): cell-based
Experiment [1] concerns the target T1, Cannabinoid receptor 1 (Homo sapiens, UniProt P21554). Description: Allosteric modulation of human recombinant CB1 receptor expressed in HEK293 cells assessed as inhibition of [3H]CP55940 binding.
For experiment [2], the target named is T1, Cannabinoid receptor 1. Description: Allosteric modulation of human recombinant CB1 receptor expressed in HEK293 cells assessed as inhibitor of [3H]CP55940 binding at 10 uM.
Experiment [3] concerns the target T2, Cannabinoid receptor 2 (Homo sapiens, UniProt P34972). Description: Allosteric modulation of human recombinant CB2 receptor expressed in HEK293 cells assessed as inhibition of [3H]CP55940 binding.
Experiment [4] addresses T2, Cannabinoid receptor 2. In words: Allosteric modulation of human recombinant CB2 receptor expressed in HEK293 cells assessed as inhibition of [3H]CP55940 binding at 10 uM.
The target in experiment [5] is T1, Cannabinoid receptor 1. Description: Allosteric modulation of human recombinant CB1 receptor expressed in HEK293 cells assessed as stimulation of [3H]CP55940 binding.
Experiment [6] deals with T1, Cannabinoid receptor 1. In words: Allosteric modulation of human recombinant CB1 receptor expressed in HEK293 cells assessed as stimulation of [3H]CP55940 binding at 10 uM.
For experiment [7], the target named is T2, Cannabinoid receptor 2. In words: Allosteric modulation of human recombinant CB2 receptor expressed in HEK293 cells assessed as stimulation of [3H]CP55940 binding at 10 uM.
The target of experiment [8] is T2, Cannabinoid receptor 2. Description: Allosteric modulation of human recombinant CB2 receptor expressed in HEK293 cells assessed as stimulation of [3H]CP55940 binding.
The target in experiment [9] is T1, Cannabinoid receptor 1. Description: Allosteric modulation of human recombinant CB1 receptor expressed in HEK293 cells assessed as inhibition of [3H]CP55940 binding at 25 uM.

T1 sequence (P21554 whole entry): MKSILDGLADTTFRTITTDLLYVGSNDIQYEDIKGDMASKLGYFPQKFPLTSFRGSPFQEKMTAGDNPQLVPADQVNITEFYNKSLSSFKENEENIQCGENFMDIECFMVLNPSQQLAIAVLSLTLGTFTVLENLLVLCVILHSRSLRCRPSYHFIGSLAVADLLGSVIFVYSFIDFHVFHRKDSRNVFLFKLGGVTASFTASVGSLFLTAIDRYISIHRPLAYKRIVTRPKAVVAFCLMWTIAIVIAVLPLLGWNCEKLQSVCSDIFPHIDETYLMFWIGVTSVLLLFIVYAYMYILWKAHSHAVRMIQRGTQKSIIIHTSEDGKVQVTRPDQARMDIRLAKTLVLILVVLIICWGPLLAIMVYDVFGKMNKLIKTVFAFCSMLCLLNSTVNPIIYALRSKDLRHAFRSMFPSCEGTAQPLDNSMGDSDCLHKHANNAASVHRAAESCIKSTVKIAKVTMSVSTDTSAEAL
T2 sequence (P34972 whole entry): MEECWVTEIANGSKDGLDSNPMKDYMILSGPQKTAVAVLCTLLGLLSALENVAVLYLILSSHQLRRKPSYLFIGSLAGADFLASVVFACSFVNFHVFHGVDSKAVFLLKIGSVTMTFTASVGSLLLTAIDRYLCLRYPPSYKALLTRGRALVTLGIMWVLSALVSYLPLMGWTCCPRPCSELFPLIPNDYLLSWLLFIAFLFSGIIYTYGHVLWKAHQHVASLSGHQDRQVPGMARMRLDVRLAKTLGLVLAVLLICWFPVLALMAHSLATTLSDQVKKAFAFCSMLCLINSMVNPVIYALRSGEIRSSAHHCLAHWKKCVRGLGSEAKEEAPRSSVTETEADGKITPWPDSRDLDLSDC

As for `CNc1ccc(CCNC(=O)c2cc3cc(Cl)ccc3[nH]2)cc1`, the IC50 in [1] and in [3] was greater than 10 µM in each case. Also, the results for the inhibition in experiment [2] and in [4] were 3.8% and 43.7%, respectively.
For `CC(O)c1c(C(=O)NCCc2ccc(N3CCCCC3)cc2)[nH]c2ccc(Cl)cc12` (racemic), in [5], the EC50 came out at 8.45 µM. Besides, the Activity in experiment [6] is 180%. For the same compound, the half-inhibitory concentration (IC50) in experiment [3] is greater than 10 µM. The inhibition in experiment [4] turned out to be 33.1%.
As to `CN(C)c1ccc(CCNC(=O)c2cc3cc(Cl)ccc3[nH]2)cc1`, the EC50 in experiment [5] was 1.53 µM. Also, the Activity in experiment [6] stood at 171%. The IC50 in [3] is greater than 10 µM. Besides, in experiment [4], the inhibition amounted to 42.1%.
On to `CCc1c(C(=O)NCCc2ccc(N)cc2)[nH]c2ccc(Cl)cc12`, for which the EC50 in experiment [5] is greater than 10 µM. The Activity in experiment [6] was 145%. For the same compound, in experiment [3], the concentration for half-maximal inhibition (IC50) is greater than 10 µM. In experiment [4], the inhibition stood at 31.1%.
For the compound `CCc1c(C(=O)NCCc2ccc(N3CCCCC3)cc2)[nH]c2ccc(Cl)cc12`, in experiment [5], the 50% effective concentration (EC50) was 0.14 µM. The Activity in experiment [6] was determined as 244%. The IC50 in experiment [3] was greater than 10 µM. In addition, the inhibition in [4] was 20.6%.
Taken in the same sequence, the figures for `CCc1c(C(=O)NCCc2ccc(Cl)cc2)[nH]c2ccc(Cl)cc12` were 0.76 µM, 179%, greater than 10 µM and 48.9%.
Taken in the same sequence, the figures for `CCc1c(C(=O)NCCc2ccc(C)cc2)[nH]c2ccc(Cl)cc12` were 0.55 µM, 189%, greater than 10 µM and 29%.
As for `Nc1ccc(CCNC(=O)c2cc3cc(Cl)ccc3[nH]2)cc1`, the IC50 in experiment [1] and in [3] was greater than 10 µM throughout. The inhibition in [2] was determined as 3.6%; in experiment [4], 37.7%.
As for `CCc1c(C(=O)NCCc2ccc(N3CCCCC3)cc2)[nH]c2ccccc12`, the EC50 in [5] came out at 0.81 µM. The Activity in [6] turned out to be 244%. In experiment [3], the IC50 was 8.97 µM. In experiment [4], the inhibition came out at 55.2%.
The corresponding values for `CCc1c(C(=O)NCCc2ccc(F)cc2)[nH]c2ccc(Cl)cc12` are greater than 10 µM, 112%, greater than 10 µM and 37.7%.
Taken in the same sequence, the figures for `O=C(NCCc1ccc([N+](=O)[O-])cc1)c1cc2cc(Cl)ccc2[nH]1` were greater than 10 µM, 141%, greater than 10 µM and 32.7%.
Regarding `CCc1c(C(=O)OCCc2ccc([N+](=O)[O-])cc2)[nH]c2ccc(Cl)cc12`, the IC50 in experiment [1] and in [3] was greater than 10 µM throughout. For the same compound, the inhibition in [2] turned out to be 24.7%; in experiment [4], 16.8%.
For `O=C(NCCc1ccc(N2CCCCC2)cc1)c1cc2cc(Cl)ccc2[nH]1`, in experiment [5], the 50% effective concentration (EC50) is 0.09 µM. Moreover, the Activity in [6] came to 207%. In experiment [3], the concentration for half-maximal inhibition (IC50) was greater than 10 µM. Further, the inhibition in [4] came to 37.9%.
Regarding `O=C(NCCc1ccc(Cl)cc1)c1cc2cc(Cl)ccc2[nH]1`, the EC50 in experiment [5] was greater than 10 µM. Further, in [6], the Activity came out at 115%. The IC50 in [3] was greater than 10 µM. Besides, the inhibition in experiment [4] came out at 11.1%.
In the case of `CCc1c(C(=O)NCCc2ccc(N3CCN(C)CC3)cc2)[nH]c2ccc(Cl)cc12`, the EC50 in experiment [5] is greater than 10 µM. The Activity in [6] was determined as 132%. Also, the IC50 in experiment [3] is 6.97 µM. The inhibition in [4] was found to be 66.7%.
Regarding `CCc1c(C(=O)NCCc2ccc([N+](=O)[O-])cc2)[nH]c2ccc(Cl)cc12`, the EC50 in experiment [5] amounted to 0.36 µM. For the same compound, the Activity in [6] was found to be 242%. Also, the IC50 in experiment [3] is greater than 10 µM. Also, the inhibition in experiment [4] came to 0%.
`Cc1c(C(=O)NCCc2ccc(N3CCCCC3)cc2)[nH]c2ccc(Cl)cc12`: the results for the EC50 in experiment [5] and in [8] were 0.23 µM and greater than 10 µM, respectively. In addition, the Activity in experiment [7] was 111%; in experiment [6], 243%.
As for `CCc1c(C(=O)OCCc2ccc(N(C)C)cc2)[nH]c2ccc(Cl)cc12`, the IC50 is greater than 10 µM in [1] and 5.57 µM in [3]. Besides, the inhibition came to 19.6% in experiment [2] and 65.7% in experiment [4].
Consider `CCc1c(C(=O)NCCc2ccc(N(C)C)cc2)[nH]c2ccc(Cl)cc12`, for which the EC50 in [5] stood at 0.05 µM. Also, in [6], the Activity came to 227%. Also, the IC50 in experiment [3] is greater than 10 µM. The inhibition in experiment [4] turned out to be 22.8%.
Consider `CCc1c(C(=O)OCCc2ccc(N3CCCCC3)cc2)[nH]c2ccc(Cl)cc12`, for which the IC50 in experiment [1] is greater than 10 µM; in experiment [3] it was 8.26 µM. Further, the results for the inhibition in [2] and in [4] were 18% and 52.7%, respectively.
As for `CCc1c(C(=O)NCCc2ccc(NC)cc2)[nH]c2ccc(Cl)cc12`, in experiment [5], the concentration for a half-maximal effect (EC50) came to 0.96 µM. Also, the Activity in experiment [6] was found to be 183%. The IC50 in [3] was 9.13 µM. In [4], the inhibition amounted to 55.7%.
With `CCc1c(C(=O)NCCc2ccc(N3CCCC3)cc2)[nH]c2ccc(Cl)cc12`, the EC50 in experiment [5] and in experiment [8] was greater than 10 µM throughout. The Activity in experiment [7] stood at 135%; in experiment [6], 134%.
With `CC(=O)c1c(C(=O)NCCc2ccc(N3CCCCC3)cc2)[nH]c2ccc(Cl)cc12`, the IC50 in experiment [1] and in experiment [3] was greater than 10 µM throughout. In addition, the inhibition amounted to 19.9% in experiment [9] and 7.9% in experiment [4].
